In US20250313900A1, “COMPOSITIONS AND THERAPEUTIC AGENTS FOR MODULATING INFLAMMATORY RESPONSES ON BOTH TUMOR AND IMMUNE CELLS” (THE METHODIST HOSPITAL, priority 2022, published 2025):
Where two headings read alike, the source gives them in different places.

Tests used:
vinculin = experiment: Western blots of vinculin expression, 4T1 tumor model; type: cell-based; details: CMTM4 knockout, 1 mm, 0, 3, 6 and 24 hours
Description: 1 mm of C10H14O3 (4-Ethoxy-3-methoxybenzyl alcohol)(28A), C9H16N2O6 (Tetrahydrouridine)(28B), or C10H14O3 (5-tert-butyl-2-methyl-3-furoic acid)(28C) was administered to control mice or CMTM4 knockouts and expression measured after 0, 3, 6, and 24 hours.

IL-6 = IL-6 production (compound screening); type: cell-based
Excerpt: (§1) The initial screening was followed by the following assessments: 1) MHC 11 assay by high-throughput flow cytometry. 2) IL-6 production. 3) NF-kB promoter activity using CMTM4-expressing NF-kB/secreted embryonic alkaline phosphatase (SEAP) reporter stable cell lines using both LLC and 4T1 cells. 4) Inhibition of EGF-mediated G-CSF secretion from tumor cells. 5) Test glycolysis (FIG. 13).

glycolysis = experiment: Test glycolysis (compound screening); type: cell-based
Excerpt: as §1

p-Akt/p-mTOR = p-Akt/p-mTOR (compound screening); type: cell-based
Description: (§2) Protein samples from cells were separated on sodium dodecyl sulfate (SDS)-polyacrylamide gels and transferred to PVDF membranes. The membranes were blocked in 4% skim milk solution, incubated with the appropriate antibody, and subsequently incubated with a secondary antibody conjugated with horseradish peroxidase. The antibodies for p-NF-κBp65, NF-κBp65. EGFR, PTEN, Akt, p-Akt, mTOR, p-mTOR, S6, p-S6, Rab4, Rab5a, Rab11, Tubulin, actin, vinculin, and CMTM4 were purchased from Cell Signaling Technology, Inc. (Beverly, MA) and the antibody for Rab21 was purchased from Santa Cruz Biotechnology. The immunoreactive bands were visualized using the ECL system (Thermo Scientific). Control and CMTM4 KD cell lysates were analyzed using the proteome profiler mouse phospho-receptor tyrosine kinase array kit (R&D Systems) following the manufacturer's instructions. For immunoprecipitation, Dynabeads His-Tag isolation and pulldown kit (Life Technologies) was used. The pull-down samples were subjected to immunoblot assays.

CMTM4 [1] = biological target: T1, CMTM4 (Mus musculus, UniProt Q8CJ61); experiment: CMTM4 level (compound screening); type: cell-based
T1 construct: endogenous in cells; LLC and 4T1 are the only lines named in the screen
T1 sequence (Q8CJ61 whole entry): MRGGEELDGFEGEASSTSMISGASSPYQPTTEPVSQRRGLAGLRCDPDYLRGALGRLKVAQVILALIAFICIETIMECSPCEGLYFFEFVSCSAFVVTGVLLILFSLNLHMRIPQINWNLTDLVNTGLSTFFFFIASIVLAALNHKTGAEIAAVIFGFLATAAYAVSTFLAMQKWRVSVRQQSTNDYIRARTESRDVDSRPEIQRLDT
Description: as §2

CMTM4 [2] = experiment: Western blot of CMTM4 protein in HCC827 CT cells; type: cell-based, human; details: 1 μM
MHC II = MHC II assay by high-throughput flow cytometry (compound screening); type: cell-based
Excerpt: as §1

[3] = tested on: NF-kB promoter activity in LLC cells; experiment: NF-kB promoter activity, CMTM4-expressing NF-kB/SEAP reporter stable LLC cells; type: cell-based, murine
Excerpt: as §1

[4] = tested on: NF-kB promoter activity in 4T1 cells; experiment: NF-kB promoter activity, CMTM4-expressing NF-kB/SEAP reporter stable 4T1 cells; type: cell-based, murine
Excerpt: as §1

G-CSF = experiment: Inhibition of EGF-mediated G-CSF secretion from tumor cells; type: cell-based
Description: as §1
Secretion of G-CSF was determined using ELISA kits according to the manufacturer's instructions (Life Technologies).

EGFR = EGFR levels in LLC CMTM4 KD cells after lipid raft depletion; type: cell-based, murine
Description: Flotillin-1 was used as a marker of lipid raft and vinculin was used as a maker of the non-raft fraction. […] FIGS. 8D and 8E show LLC CMTM4 KD cells were treated with MβCD and real-time PCR (8D) and western blot (8E) were performed to determine EGFR levels. *p<0.05. FIG. 8F show 293T cells were transfected with CMTM4 WT-mcherry (upper) or CMTM4 MT-mcherry (lower) with EGFR-EGFP and then, cells were treated with EGF for 1 hour. Representative confocal images are shown. FIG. 8G show RNAseq data showing Rab expression between control and CMTM4 KD LLC cells. FIGS. 8H and 8I show Rab expression in control and CMTM4 KD LLC cells were determined by qRT-PCR (H) and western blot (8I). FIGS. 8J, 8K, and 8L show 293T cells were transfected with CMTM4-EGFP and Rab4 (mCherry), Rab5 (mCherry), or Rab11 (mCherry), and then, cells were treated with EGF for 1 hour. Representative confocal images are shown. Pearson correlation coefficient (PCC) was measured from 20 individual cells. FIGS. 8M and 8N show EGFR-EGFR and Lamp-1 RFP were transfected to LLC control and CMTM4 KD cells. Confocal imaging was taken before (8M) and after (8N) treatment with EGF. Pearson correlation coefficient (PCC) was measured from 20 individual cells. *p<0.05, **p<0.01, ***P<0.001, ****P<0.0001. Scale bar: 3 μm. […]

| Compound | IL-6 (%) (IL-6) | Glycolysis (glycolysis) | p-Akt/p-mTOR (p-Akt/p-mTOR) | CMTM4 (CMTM4 [1]) | MHC II (%) (MHC II) | further results |
| --- | --- | --- | --- | --- | --- | --- |
| CCOc1ccc(CO)cc1OC [4-Ethoxy-3-methoxybenzyl alcohol] | – | – | – | – | – | vinculin expression (vinculin): significantly increased |
| Cc1oc(C(C)(C)C)cc1C(=O)O [5-tert-butyl-2-methyl-3-furoic acid] | – | – | – | – | – | vinculin expression (vinculin): significantly increased |
| C/C=C/C(=O)O [C4H6O2, CROTONIC ACID, CROTONIC ACID] | 4.438 | Inhibit | Decrease | No difference | – | – |
| O=C1NC(O)CCN1[C@@H]1O[C@H](CO)[C@@H](O)[C@H]1O (some centres unmarked) [C9H16N2O6, Tetrahydrouridine, Tetrahydrouridine] | −0.1232 | Inhibit | Decrease | No difference | – | CMTM4 protein expression (CMTM4 [2]): decreased; vinculin expression (vinculin): significantly increased |
| OC[C@H]1O[C@@H](n2cnc3c(O)ncnc32)[C@H](O)[C@@H]1O [C10H12N4O5, Inosine, Inosine] | −9.437 | Inhibit | – | No difference | – | CMTM4 protein expression (CMTM4 [2]): decreased |
| Cc1ccccc1OCC(O)CO (centres unmarked) [C10H14O3, Mephenesin, Mephenesin] | 0.5625 | Inhibit | Decrease | No difference | – | – |
| N#Cc1cn([C@@H]2O[C@H](CO)[C@@H](O)[C@H]2O)c2ncnc(N)c12 [C12H13N5O4, Toyocamycin, Toyocamycin] | −3.717 | Inhibit | Decrease | No difference | – | – |
| C[C@H]1O[C@H](O[C@H]2[C@H](O)[C@@H](O)[C@@H](O)[C@H](O)[C@@H]2O)[C@@H](N)C[C@@H]1NC(=N)C(=O)O [C14H25N3O9, Kasugamycin, Kasugamycin] | 1.934 | Inhibit | Decrease | No difference | 483.4 | NF-kB (%)-LLC [3]: 46.83%; NF-kB (%)-4T1 [4]: 44.19%; G-CSF (%) (G-CSF): 66.41% |
| COc1cc(-c2oc3cc(O)cc(O)c3c(=O)c2O)ccc1O [C16H12O7, Isorhamnctin, Isorhamnetin] | −11.581 | Inhibit | Decrease | No difference | – | – |
| COc1cc(O)c2c(=O)c(O)c(-c3ccc(O)c(O)c3)oc2c1 [C16H12O7, Rhamnetin, Rhamnetin] | −5.243 | Inhibit | Decrease | No difference | – | – |
| CO[C@H]1Nc2c(ccc(C)c2O)C(=O)N2C=C(/C=C/C(N)=O)C[C@@H]12 [C17H19N3O4, Anthramycin methyl ether, Anthramycin methyl ether] | −1.982 | Inhibit | Decrease | No difference | – | – |
| O=C(/C=C/c1ccc(O)c(O)c1)O[C@H](Cc1ccc(O)c(O)c1)C(=O)O [C18H16O8, Rosmarinic Acid, Rosmarinic Acid] | −0.1232 | Inhibit | Decrease | No difference | – | – |
| CCc1cccc2c1c(O)c(C(=O)N(CC)c1ccccc1)c(=O)n2C [C21H22N2O3, Paquinimod, Paquinimod] | −0.809 | Inhibit | Decrease | No difference | 520.6 | NF-kB (%)-LLC ([3]; LLC reporter cells): 32.6%; NF-kB (%)-4T1 ([4]; 4T1 reporter cells): 46.87%; G-CSF (%) (G-CSF; EGF-mediated secretion): 3.464% |
| CC[C@]12CCCN3CCc4c(n(c5ccccc45)[C@@](O)(C(=O)OC)C1)[C@@H]32 [C21H26N2O3, Vincamine, Vincamine] | 5.815 | Inhibit | No difference | Decrease | – | – |
| CCCCC1CCCCCCc2[nH]c(/C=C3\N=C(c4ccc[nH]4)C=C3OC)cc21.Cl (centres unmarked) [C25H33N3O•ClH, Butylcycloheptylprodiginine Hydrochloride] | −6.005 | Inhibit | – | Decrease | 426.2 | NF-kB (%)-LLC ([3]; LLC reporter cells): 53.61%; NF-kB (%)-4T1 ([4]; 4T1 reporter cells): 45.8%; G-CSF (%) (G-CSF; EGF-mediated secretion): 4.236% |
| C[C@@H]1C[C@@H]2CCCC(O)=C2C(=O)O1 [Compound C10H14O3, Ramulosin] | −0.1232 | Inhibit | Decrease | No difference | 340.5 | NF-kB (%)-LLC ([3]; LLC reporter cells): 34.35%; NF-kB (%)-4T1 ([4]; 4T1 reporter cells): 42.04%; G-CSF (%) (G-CSF; EGF-mediated secretion): 3.85% |
| Cc1c2ccncc2c(C)c2c1[nH]c1ccccc12 [Ellipticine] | −15.7288 | Inhibit | Decrease | No difference | – | CMTM4 protein expression (CMTM4 [2]): decreased |
| COc1ccc2c3c([nH]c2c1)[C@H](C=C(C)C)N1C(=O)[C@@H]2CCCN2C(=O)[C@@H]1C3 [Fumitremorgin C] | 10.85 | Inhibit | Decrease | No difference | 5071 | NF-kB (%)-LLC [3]: 42.89%; NF-kB (%)-4T1 [4]: 49.73%; G-CSF (%) (G-CSF): 6.939% |
| Lobophorin F [C54H78N2O17, Lobophorin F] | −12.2043 | Inhibit | Decrease | Decrease | 360.5 | NF-kB (%)-LLC ([3]; LLC reporter cells): 37.64%; NF-kB (%)-4T1 ([4]; 4T1 reporter cells): 40.07%; G-CSF (%) (G-CSF; EGF-mediated secretion): 1.147% |
| methyl-beta-cyclodextrin [methyl-beta-cyclodextrin (MβCD)] | – | – | – | – | – | EGFR mRNA level (EGFR; real-time PCR): increased; EGFR protein level (EGFR; western blot): increased |
